Experimental data: patent US8236984B2, “Compound and use thereof in the treatment of amyloidosis” (Pentraxin Therapeutics Ltd., priority 2007, dated 2012)
“Also recorded” adds a separate entry of the source.

What was measured:
[1] = biological target: T1, native wild type transthyretin (Homo sapiens, UniProt P02766); experiment: Gel filtration (Superdex 200) of transthyretin-ligand complexes; assay type: binding; conditions: for A280/A330 ratio of main component eluting at 14.4 ml: 2 nanomoles transthyretin incubated 1 h with 1 μl of 4 mM ligand in DMSO, PBS; for dissociation of ligand from the complex during gel filtration: after 100 volume solvent exchanges
T1 construct: isolated from pooled normal human plasma, was obtained from Scipac; purchased Scipac Ltd, Sittingbourne, Kent, UK; host or cells: pooled normal human plasma
Description: 1.3 Gel filtration. Native transthyretin was eluted with either PBS or 150 mM ammonium bicarbonate (pH 7.6) from a Superdex 200 (30×1.0 cm) column, run on an ÅKTA Explorer system, as a UV absorbing peak (A280/A330˜30 to 50:1) with Ve 14.4 ml (FIG. 1). A minor (<5%) higher molecular weight component eluting at 12.5 ml was always seen.
3.1.1. Binding of 4ajm15 and mds84 by transthyretin. One μl (5.3 nmol) of a concentrated (5.3 mM) solution of 4ajm15 in DMSO was added to 3.8 nmol of transthyretin in 100 μl PBS (1.4 fold molar excess of ligand) and incubated at room temperature for 30 min. The sample was chromatographed on Superdex 200, where the transthyretin-4ajm15 complex eluted at 14.4 ml, with a reduced A280/A330 ratio (˜5:1) consistent with binding. A similar result was obtained with transthyretin and 4ajm15 when chromatography was undertaken in volatile ammonium bicarbonate buffer. A similar result was also obtained when mds84 (2 nmol) was first dried into a tube and then resuspended in 5 μl of DMSO before adding the protein solution. In further experiments, 2 nanomoles of native wild type transthyretin (Scipac) were incubated in 55 μl of PBS for 1 h with either 1 μl DMSO (control) or 1 μl of a 4 mM solution in DMSO of mds84 or 4ajm15. Samples were chromatographed on a Superdex 200 column (30×1 cm) in PBS at 0.5 ml/min, with 0.5 ml fractions collected (FIG. 1). […] The full UV spectra of the main components were determined in each case and were consistent with a transthyretin:ligand ratio of ˜1:0.9.

wild type transthyretin [2] = biological target: T2, wild type transthyretin (Homo sapiens, UniProt P02766); experiment: Mass spectrometric analysis of subunit exchange; assay type: biochemical; set-up: made in house; conditions: 4.4 μM labelled proteins, 2-fold molar excess of ligand, room temperature and 4° C.
Description: 4.2 Mass spectrometric analysis of subunit exchange. Recombinant wild type, L55P and V30M transthyretin variants were biosynthetically labelled with isotopes [^15N] and [^15N, ^13C] as previously described (Keetch C A et al, 2005). Immediately prior to analysis, proteins were buffer exchanged into 20 mM ammonium acetate, pH 7.0 using Micro Biospin columns (Bio-Rad, UK). The subunit composition of transthyretin was monitored as a function of time by incubating an equimolar solution (4.4 μM) of [^15N] and [^15N, ^13C] labelled proteins in the presence of 2-fold molar excess of 4ajm15 in DMSO or 2.5% DMSO alone as a control. Each experiment was carried out in triplicate at room temperature and at 4° C. as well, since it is known that subunit exchange is accelerated at low temperatures. Nanoflow ESMS was performed on a QToF2 instrument (Waters/Micromass UK, Ltd.) modified for high mass operation (Sobott et al, (2002)) and calibrated externally using caesium iodide (100 mg/ml). Each solution, 1.5 μl, was electrosprayed from gold coated borosilicate capillaries prepared in-house as described (Nettleton E J, et al, 1998). […]

wild type transthyretin [3] = biological target: T2, wild type transthyretin; experiment: Inhibition of transthyretin aggregation at acidic pH (turbidity at 400 nm); assay type: biochemical; set-up: isolated from pooled normal human plasma, was obtained from Scipac; purchased Scipac Ltd, Sittingbourne, Kent, UK; host or cells: pooled normal human plasma; conditions: pH 4.4, 3 d 37° C.
Description: 3.3.1 Wild type transthyretin. The purified wild type transthyretin (liquid and lyophilised) used in these experiments, isolated from pooled normal human plasma, was obtained from Scipac, (Sittingbourne, Kent, UK). Protein concentration was determined by absorbance at 280 nm after correction for light scattering at 320 nm using the absorption coefficient E1 cm^1%=14.0. […] Nano electrospray ionisation mass spectrometry confirmed the presence of normal and cysteinylated transthyretin monomers (Terazaki et al, 1998) under denaturing conditions, and solvent-bound transthyretin tetramer (Nettleton et al, 1998) under mild desolvation conditions.
3.3.2 Inhibition of transthyretin aggregation by 4ajm15: In pilot experiments, transthyretin aggregates were formed from wild type transthyretin (3.6 μM) after incubation at acidic pH for 3 d at 37° C. (Colon and Kelly, 1992). The efficacy of 4ajm15 as an inhibitor of transthyretin aggregate formation was then compared with other transthyretin ligand compounds. […] After 30 min at 37° C., the pH was adjusted to pH 4.4 (with 0.2 M sodium acetate buffer pH 4.0), and the ˜1 ml mixtures were incubated unstirred for 3 d at 37° C.
Using the same method the activities of mds84 and 4ajm15 as inhibitors of the aggregation of both wild type transthyretin and the most aggressively aggregating transthyretin variant, L55P, were evaluated in triplicate with both proteins at 3.6 μM and with one (3.6 μM) or 3 equivalents (10.8 μM) of each ligand. Wild type transthyretin was studied at pH 4.4 and L55P at pH 5.0. […] Mean values and standard deviations are shown in Table 2 and in FIG. 4, where results with 1:1 molar ratio are shown cross hatched and 3:1 molar ratio in open bars.

wild type transthyretin [4] = biological target: T2, wild type transthyretin; experiment: Differential scanning calorimetry of transthyretin with ligand; assay type: binding; set-up: isolated from pooled normal human plasma, was obtained from Scipac; purchased Scipac Ltd, Sittingbourne, Kent, UK; host or cells: pooled normal human plasma
[5] = five fold molar excess of ligand

| Structure (SMILES) | A280/A330 ratio of main component eluting at 14.4 ml [1] | dissociation of ligand from the complex during gel filtration [1] | subunit exchange of wild type transthyretin (wild type transthyretin [2]) | transthyretin aggregate formation in the presence of ligand (wild type transthyretin [3]; wild type, in words) | midpoint of thermal denaturation (Tm) in the presence of ligand (wild type transthyretin [4]; preliminary DSC, 0.02 mM tetramer, 0.2 mM ligand, PBS pH 7.4, 2% DMSO, transthyretin alone 99.5) | Aggregation of transthyretin, Mean (1:1) (wild type transthyretin [3]; wild type 3.6 μM, ligand 3.6 μM) | Aggregation of transthyretin, Mean (3:1) (wild type transthyretin [3]; wild type 3.6 μM, ligand 10.8 μM) | Tm of wild type transthyretin with the ligand (wild type transthyretin [4]; [5]) | increase in Tm of wild type transthyretin (wild type transthyretin [4]; [5]) |
| --- | --- | --- | --- | --- | --- | --- | --- | --- | --- |
| O=C(O)c1ccccc1Nc1cc(Cl)c(OCCCCCCCCCCCOc2c(Cl)cc(Nc3ccccc3C(=O)O)cc2Cl)c(Cl)c1 [4ajm15, 2,2′-(4,4′-(undecane-1,11-diylbis(oxy))bis(3,5-dichloro-4,1-phenylene))bis(azanediyl)dibenzoic acid] | ~4.6 | negligible dissociation | prevents any subunit exchange; also recorded: almost complete absence of exchange after 7 days | dramatically reduced; also recorded: identical to those with mds84 | 103.6 °C | – | – | – | – |
| O=C(O)c1ccccc1Nc1cc(Cl)c(OCCCCCCCOc2c(Cl)cc(Nc3ccccc3C(=O)O)cc2Cl)c(Cl)c1 [mds84, 2,2′-(4,4′-(heptane-1,7-diylbis(oxy))bis(3,5-dichloro-4,1-phenylene))bis(azanediyl)dibenzoic acid] | ~4.6 | negligible dissociation | – | – | – | 1.7 per cent of control with DMSO alone | 2 per cent of control with DMSO alone | 107.5 °C | 6.2 °C |
